Data taken from ChEMBL document CHEMBL1158224, “Bioactive ent-kaurene diterpenoids from Annona senegalensis” (J Nat Prod, 1996).
In brackets after ≈: the same amount, converted by molar mass.

Tests used:
[1] = tested on: A549; test: Cytotoxicity against human A549 cells after 7 days by MTT assay; assay type: functional; details: A549, 168 h, read-out: ED50 (the source's name)
[2] = tested on: HT-29; test: Cytotoxicity against human HT29 cells after 7 days by MTT assay; assay type: functional; details: HT-29, 168 h, read-out: ED50 (the source's name)
[3] = tested on: MCF7; test: Cytotoxicity against human MCF7 cells after 7 days by MTT assay; assay type: functional; details: MCF7, 168 h, read-out: ED50 (the source's name)
[4] = tested on: A498; test: Cytotoxicity against human A498 cells after 7 days by MTT assay; assay type: functional; details: A498, 168 h, read-out: ED50 (the source's name)
[5] = tested on: MIA PaCa-2; test: Cytotoxicity against human MIAPaCa2 cells after 7 days by MTT assay; assay type: functional; details: MIA PaCa-2, 168 h, read-out: ED50 (the source's name)
[6] = tested on: PC-3; test: Cytotoxicity against human PC3 cells after 7 days by MTT assay; assay type: functional; details: PC-3, 168 h, read-out: ED50 (the source's name)
[7] = Toxicity against brine shrimp; assay type: organism-based; details: artemia, in vivo

For COc1cccc2c1C(=O)c1c(O)c3c(c(O)c1C2=O)C[C@@](O)(C(=O)CO)C[C@@H]3O[C@H]1C[C@H](N)[C@H](O)[C@H](C)O1 [DOXORUBICIN], the EC50 [1] was 0.00506 µg/mL (≈ 0.00931 µM), the EC50 [2] was 0.0437 µg/mL (≈ 0.0804 µM) and the EC50 [3] was 0.152 µg/mL (≈ 0.28 µM). For the same molecule, the EC50 [4] was 0.01 µg/mL (≈ 0.0184 µM), the EC50 [5] was 0.00379 µg/mL (≈ 0.00697 µM) and the EC50 [6] was 0.0223 µg/mL (≈ 0.041 µM).

With COC(=O)[C@]1(C)CCC[C@@]2(C)[C@H]3CC[C@@H]4C[C@@]3(CC[C@@H]21)C[C@@H]4C(=O)O the EC50 [3] was over 20 µg/mL and the EC50 [6] was 17.4 µg/mL (≈ 49.9 µM).

CC(=O)OC[C@@]1(OC(C)=O)C[C@@]23CC[C@H]4[C@@](C)(CCC[C@@]4(C)C(=O)O)[C@H]2CC[C@@H]1C3 showed an EC50 [3] of over 20 µg/mL and an EC50 [6] of 17.7 µg/mL (≈ 42.1 µM).

Molecule C=C1C[C@@]23CC[C@H]4[C@@](C)(CCC[C@@]4(C)C(=O)O)[C@@H]2CC[C@@H]1C3 [KAURENOIC ACID] has an LC50 [7] of 16 µg/mL (≈ 52.9 µM), an EC50 [1] of 13.6 µg/mL (≈ 44.9 µM) and an EC50 [2] of 31.4 µg/mL (≈ 104 µM). The EC50 [3] was 1 µg/mL (≈ 3.31 µM), the EC50 [4] was 48 µg/mL (≈ 159 µM) and the EC50 [5] was 22.1 µg/mL (≈ 73.2 µM). For the same molecule, the EC50 [6] was 15.2 µg/mL (≈ 50.2 µM).
